Reference: patent US20060160777A1, “New use of GABAbeta receptor agonists” (priority 2004, published 2006)
Like-named read-outs stand apart in the source and are kept apart here.

Tests used:
[1] = tested on: citric acid-induced cough in conscious guinea pigs; experiment: Citric acid-induced cough in conscious guinea pigs, GABAB agonists given subcutaneously; type: in vivo, guinea pig
Excerpt: Citric acid-induced cough was evoked in conscious guinea pigs. Male Hartley guinea pigs (300-400 g) were placed in a chamber with a continuous flow of air. Positive and negative pressure changes within the chamber were used to monitor the expiratory and inspiratory phases of respiration. A nebuliser was connected in series with the air pump, allowing aerosol delivery of citric acid (0.1-1 M).
Cough was defined based on the visual appearance of the respiratory manoeuvre, the characteristic sound, and by a signature pressure trace typified by an expiratory effort that produced a positive chamber pressure 10-20 times higher than that associated with tidal breathing and proceeded by a rapid and pronounced inspiratory effort. All data were recorded digitally. The total number of coughs and the estimated concentration of citric acid evoking 1, 2 and 5 coughs were determined for each experiment.
(§1) Four treatment groups were employed in this study: Vehicle control, baclofen, (2R)-(3-amino-2-fluoropropyl) phosphinic acid and (3-aminopropyl) phosphinic acid (3-APPiA). […] […] To assess CNS depressant effects of these compounds, their effects on respiratory rate and respiratory pattern (inspiratory and expiratory times) were assessed and compared to control.

conscious guinea pigs = experiment: Effects of subcutaneously administered GABAB agonists on baseline respiratory rate in conscious guinea pigs; details: placebo 96.2 ± 3.8
Procedure: as §1
B. Effects of Subcutaneously Administered GABAB Agonists on Baseline Respiratory Rate in Conscious Guinea Pigs

[2] = Pharmacokinetics in female dogs after single intravenous and oral doses; type: in vivo, dog; details: for half-life / clearance / Vd: Beagle and Labrador; for Vd: read-out: Vss (volume of distribution at steady state); for F (oral availability): oral vs intravenous
Procedure: In the present studies dogs received single intravenous and oral doses of 3-APPiA, (2R)-(3-amino-2-fluoropropyl) phosphinic acid (A), (2S)-(3-amino-2-hydroxypropyl) phosphinic acid A), (3-amino-2-oxopropyl) phosphinic acid (C) and 3-amino-2-fluoropropyl) phosphinic acid (D) at therapeutic doses. The plasma concentrations of each compound was determined by LC-MS. The mean values of the total plasma clearance (CL), the half-life (TA), the volume of distribution at steady state (Vs), the oral availability (F), are summarised in Table 5.
Eight female Beagle and four Labrador dogs were used. The dogs were identified by a number tattooed in the ear. The animals had free access to water and were fed once a day (GLP diet) at approximately 1 p.m. On the experimental day, the dogs had not eaten since approximately 1 p.m. on the day before and were not allowed to eat until 6 hours after dosing.
The test formulations were administered intravenously in a superficial front leg vein (this vein was not used for blood sampling during 2 hours after dosing) or orally by gavage. The gavage tube was rinsed with about 20 mL of water and emptied with 20 mL of air before it was taken out. The oral and intravenous dose volumes were 1 and 0.5 mL/kg, respectively
Blood samples of about 2 mL were taken from a superficial front leg vein pre-dose and at 5, 10, 20, 40, 90 minutes, 3, 5, 8 and 24 hours after dosing. The blood samples were collected in heparinized glass tubes (Venoject®) and centrifuged (10 min, 3000 g, +4° C.). The plasma was then transferred to plastic tubes and stored at about −20° C. until analysis.
The pharmacokinetic parameters were calculated by non-compartment analysis using WinNonlin Professional (Pharsight Corporation, California, USA). The area under the plasma concentration-time curve (AUC(0-t)) was calculated using a combination of the linear and logarithmic trapezoidal rule from the time of administration to the sampling time with the last determinable plasma concentration (3, 5, 8 or 24 h). For the intravenous bolus dose, the concentration at time zero (C(0)) was estimated by log-linear regression of the first two concentration-time points. The AUC(0-t) was extrapolated to infinity by adding Ct/k. Ct was the predicted plasma concentration at the time of the last plasma sample with a determinable concentration and k was the apparent terminal rate constant. Ct and k were obtained by linear least-squares regression analysis of the logarithm of the last 3 to 5 plasma concentrations versus time. The apparent terminal half-life (t1/2) was calculated as In 2/k, wherein k is elimination constant, i.e. the slope of the decreasing curve.
The oral bioavailability (F) for each dog was calculated from individual AUC (area under the curve) and dose values. The calculation was made as follows: (AUCpo·Doseiv/AUCic·Dosepo)·100.
Estimates of total plasma clearance and of volume of distribution were calculated from plasma concentration data obtained after intravenous bolus injection. The total plasma clearance (CL) was calculated as Dosei.v./AUCi.v., and the volume of distribution at steady is state (Vss) was calculated as MRTi.v.·CL. The mean residence time after intravenous administration (MRTi.v.) was calculated as AUMC/AUC for bolus injection, wherein AUMC is the area under the first-moment versus time curve. The results are presented by descriptive statistics. The pharmacokinetic parameters are presented as geometric mean and range.

[3] = 0.3 mg/kg s.c., 30 min before challenge, citric acid 0 M, mean ± spread
[4] = 0.3 mg/kg s.c., citric acid 0.01 M
[5] = 0.3 mg/kg s.c., citric acid 0.1 M
[6] = 0.3 mg/kg s.c., citric acid 0.3 M
[7] = 0.3 mg/kg s.c., citric acid 1 M
[8] = 3 mg/kg s.c., citric acid 0.01 M
[9] = 3 mg/kg s.c., citric acid 0.1 M
[10] = 3 mg/kg s.c., citric acid 0.3 M
[11] = dog, in vivo, female dogs, geometric mean, dose 2-7 μmol/kg per compound, read-out: T1/2 (half-life) (converted)
[12] = dog, in vivo, female dogs, intravenous bolus, geometric mean, dose 2-7 μmol/kg per compound, read-out: CL (total plasma clearance)
[13] = dog, in vivo, female dogs, intravenous bolus, geometric mean, dose 2-7 μmol/kg per compound
[14] = female dogs, geometric mean, dose 2-7 μmol/kg per compound

NCC(CC(=O)O)c1ccc(Cl)cc1 (stereo not drawn) [Baclofen, 4-amino-3-(chlorophenyl)butanoic acid]
Cumulative number of coughs evoked by citric acid [1, 3]: 0 ± 0 | Cumulative number of coughs evoked by citric acid [1, 4]: 1.0 ± 0 | Cumulative number of coughs evoked by citric acid [1, 5]: 3.0 ± 0.6 | Cumulative number of coughs evoked by citric acid [1, 6]: 12.3 ± 7.4 | Cumulative number of coughs evoked by citric acid [1, 7]: 25.7 ± 4.8 | Cumulative number of coughs evoked by citric acid ([1]; 3 mg/kg s.c., citric acid 0 M): 0 ± 0 | Cumulative number of coughs evoked by citric acid [1, 8]: 0 ± 0 | Cumulative number of coughs evoked by citric acid [1, 9]: 1.0 ± 0.5 | Cumulative number of coughs evoked by citric acid [1, 10]: 6.0 ± 1.9 | Cumulative number of coughs evoked by citric acid ([1]; 3 mg/kg s.c., citric acid 1 M): 14.3 ± 3.8 | Baseline respiratory rate (result of study B, mean) (conscious guinea pigs; 0.3 mg/kg s.c.): 96.8 ± 8.5 | Baseline respiratory rate (result of study B, mean) (conscious guinea pigs; 3 mg/kg s.c.): 78.1 ± 17.6

CP(=O)(O)CCCN [SKF97541, (3-aminopropyl)methyl phosphinic acid]
Cumulative number of coughs evoked by citric acid [1, 3]: 0 ± 0 | Cumulative number of coughs evoked by citric acid [1, 4]: 0 ± 0 | Cumulative number of coughs evoked by citric acid [1, 5]: 0.4 ± 0.2 | Cumulative number of coughs evoked by citric acid [1, 6]: 3.8 ± 1.6 | Cumulative number of coughs evoked by citric acid [1, 7]: 19.2 ± 5.8 | Baseline respiratory rate (result of study B, mean) (conscious guinea pigs; 0.1 mg/kg s.c.): 79.2 ± 16.5 | Baseline respiratory rate (result of study B, mean) (conscious guinea pigs; 0.3 mg/kg s.c.): 68.6 ± 6.0

NC[C@@H](F)C[PH](=O)O [A, (2R)-(3-amino-2-fluoropropyl) phosphinic acid]
half-life ([2]; female, dog, in vivo): 7.5 h | clearance ([2]; female, dog, in vivo, iv): 2.1 mL/min/kg | Cumulative number of coughs evoked by citric acid [1, 3]: 0 ± 0 | Cumulative number of coughs evoked by citric acid [1, 4]: 0 ± 0 | Cumulative number of coughs evoked by citric acid [1, 5]: 3.4 ± 1.1 | Cumulative number of coughs evoked by citric acid [1, 6]: 11.4 ± 1.3 | Cumulative number of coughs evoked by citric acid [1, 7]: 27.6 ± 3.7 | Cumulative number of coughs evoked by citric acid ([1]; 3 mg/kg s.c., citric acid 0 M): 0 ± 0 | Cumulative number of coughs evoked by citric acid [1, 8]: 0.1 ± 0.1 | Cumulative number of coughs evoked by citric acid [1, 9]: 1.9 ± 1.1 | Cumulative number of coughs evoked by citric acid [1, 10]: 9.0 ± 3.8 | Cumulative number of coughs evoked by citric acid ([1]; 3 mg/kg s.c., citric acid 1 M): 15.4 ± 3.6 | Cumulative number of coughs evoked by citric acid ([1]; 10 mg/kg s.c., citric acid 0 M): 0 ± 0 | Cumulative number of coughs evoked by citric acid ([1]; 10 mg/kg s.c., citric acid 0.01 M): 0 ± 0 | Cumulative number of coughs evoked by citric acid ([1]; 10 mg/kg s.c., citric acid 0.1 M): 0.6 ± 0.3 | Cumulative number of coughs evoked by citric acid ([1]; 10 mg/kg s.c., citric acid 0.3 M): 3.8 ± 1.3 | Cumulative number of coughs evoked by citric acid ([1]; 10 mg/kg s.c., citric acid 1 M): 9.7 ± 1.9

NCCC[PH](=O)O [Compound 3-APPiA, (3-aminopropyl) phosphinic acid]
half-life [2, 11]: 0.52 h | clearance [2, 12]: 20 mL/min/kg | Vd [2, 13]: 0.55 L/kg | F (oral availability) [2, 14]: 10% | Cumulative number of coughs evoked by citric acid [1, 3]: 0 ± 0 | Cumulative number of coughs evoked by citric acid [1, 4]: 0 ± 0 | Cumulative number of coughs evoked by citric acid [1, 5]: 0.2 ± 0.2 | Cumulative number of coughs evoked by citric acid [1, 6]: 7.8 ± 3.0 | Cumulative number of coughs evoked by citric acid [1, 7]: 28.8 ± 2.9 | Cumulative number of coughs evoked by citric acid ([1]; 3 mg/kg s.c., citric acid 0 M): 0 ± 0 | Cumulative number of coughs evoked by citric acid [1, 8]: 0 ± 0 | Cumulative number of coughs evoked by citric acid [1, 9]: 1.7 ± 0.9 | Cumulative number of coughs evoked by citric acid [1, 10]: 3.9 ± 1.6 | Cumulative number of coughs evoked by citric acid ([1]; 3 mg/kg s.c., citric acid 1 M): 16.1 ± 5.2 | Baseline respiratory rate (result of study B, mean) (conscious guinea pigs; 0.3 mg/kg s.c.): 93.0 ± 5.6 | Baseline respiratory rate (result of study B, mean) (conscious guinea pigs; 3 mg/kg s.c.): 97.9 ± 4.2

NCC(F)C[PH](=O)O (stereo not drawn) [D]
T1/2 (half-life) ([2]; dog, in vivo): 8.2 h | CL (total plasma clearance) ([2]; dog, in vivo, iv): 5.2 mL/min/kg | Vss (volume of distribution at steady state) ([2]; dog, in vivo, iv): 2.3 L/kg

NCC(=O)C[PH](=O)O [C, (3-amino-2-oxopropyl) phosphinic acid]
half-life [2, 11]: 2.5 h | clearance [2, 12]: 8.2 mL/min/kg | Vd [2, 13]: 0.74 L/kg | F (oral availability) [2, 14]: 60%

NC[C@H](O)C[PH](=O)O [B, (2S)-(3-amino-2-hydroxypropyl) phosphinic acid]
half-life [2, 11]: 0.5 h | clearance [2, 12]: 6.67 mL/min/kg | Vd [2, 13]: 0.25 L/kg | F (oral availability) [2, 14]: 86%
